Source: publication PMC9026026 (ACS Omega, 2022)
Values joined by “and” are separate entries in the source; they are usually repeats but may differ in a detail not shown here. Equal values may be shown once. Read-outs that look alike come from different tables or passages of the source. Each block holds one molecule with its values, some of them ahead of it.

Columns and labels:
[1] = assay type: in vivo, Wistar rats; conditions: for Cmax: mean ± SEM (n = 5)
[2] = cited from earlier work; for elevation of oral exposure of repaglinide upon coadministration: clinical
CYP2C8 [3] = conditions: read-out: IC50 for CYP2C8 inhibitory activity; mixed type of inhibition; cited from earlier work
CYP2C8 [4] = molecular target: T1, CYP2C8 (Homo sapiens, UniProt P10632); conditions: read-out: Ki for CYP2C8 inhibition in HLM; cited from earlier work
T1 sequence (P10632 1-490): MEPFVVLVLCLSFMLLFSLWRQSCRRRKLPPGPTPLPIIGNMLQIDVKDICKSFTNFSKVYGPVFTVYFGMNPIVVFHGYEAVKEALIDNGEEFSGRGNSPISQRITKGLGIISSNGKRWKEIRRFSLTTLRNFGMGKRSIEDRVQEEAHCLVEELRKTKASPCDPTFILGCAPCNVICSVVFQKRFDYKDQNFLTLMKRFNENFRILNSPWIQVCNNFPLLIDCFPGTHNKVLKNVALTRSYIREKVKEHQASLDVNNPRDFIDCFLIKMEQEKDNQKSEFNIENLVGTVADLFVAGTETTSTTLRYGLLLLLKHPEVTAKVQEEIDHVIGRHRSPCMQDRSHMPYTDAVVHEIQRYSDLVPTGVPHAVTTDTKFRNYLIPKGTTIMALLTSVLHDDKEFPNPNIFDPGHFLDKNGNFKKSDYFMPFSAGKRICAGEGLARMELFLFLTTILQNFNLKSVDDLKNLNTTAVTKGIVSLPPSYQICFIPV

[5] = cited from earlier work
[6] = system: amodiaquine metabolism in rat liver microsomes (RLM); assay type: in vitro ADME; conditions: RLM 0.5 mg/mL, amodiaquine 2 μM, myricetin 0, 10, 100 μM, 30 min
CYP3A4 = conditions: cited from earlier work; for Ki: read-out: Ki for CYP3A4
CYP2D6 = conditions: read-out: IC50 for CYP2D6; cited from earlier work
CYP2C8 [7] = molecular target: T1, CYP2C8; assay: biochemical
CYP2C8 [8] = molecular target: T1, CYP2C8
[9] = rat model; cited from earlier work
[10] = substrate: CCN(CC)Cc1cc(Nc2ccnc3cc(Cl)ccc23)ccc1O; assay: Kinetic parameters of CYP2C8-catalyzed amodiaquine-N-deethylation in HLM; assay type: in vitro ADME, human; conditions: other: HLM, N-desethylamodiaquine formation; pH 7.4; 37.0 °C
[11] = rats, amodiaquine 60 mg/kg oral alone (Group-I)
[12] = rats, myricetin 5 mg/kg i.v. followed by amodiaquine 60 mg/kg oral (Group-II)

- AUC0–t [1, 11]: 1313.30 ± 349.54 ng·h/mL
- AUC0–∞ [1, 11]: 3362.65 ± 667.75 ng·h/mL
- MRT [1, 11]: 18.70 ± 4.68 h
- T1/2 [1, 11]: 11.65 ± 3.21 h
- Tmax [1, 11]: 4.20 ± 0.80 h
- Cmax [1, 11]: 370.40 ± 125.05 ng/mL
- AUC0–t [1, 12]: 2061.57 ± 452.16 ng·h/mL
- AUC0–∞ [1, 12]: 3980.79 ± 1273.24 ng·h/mL
- MRT [1, 12]: 12.64 ± 4.42 h
- T1/2 [1, 12]: 7.91 ± 3.00 h
- Tmax [1, 12]: 3.60 ± 0.81 h
Molecule: CCNCc1cc(Nc2ccnc3cc(Cl)ccc23)ccc1O [N-desethylamodiaquine]

- AUC(0-t) ([1]; male, Wistar, rat, plasma, po, 60 mg/kg, AUC0–t, rats, amodiaquine 60 mg/kg oral alone (Group-I)): 3120 ± 414 ng·h/mL
- Cmax ([1]; male, Wistar, rat, plasma, po, 60 mg/kg, Cmax, rats, amodiaquine 60 mg/kg oral alone (Group-I)): 1030 ± 247 ng/mL
- half-life ([1]; male, Wistar, rat, plasma, po, 60 mg/kg, T1/2, rats, amodiaquine 60 mg/kg oral alone (Group-I)): 130 ± 18 min
Molecule: CCN(CC)Cc1cc(Nc2ccnc3cc(Cl)ccc23)ccc1O [amodiaquine]

Molecule: COC(=O)[C@H](c1ccccc1Cl)N1CCc2sccc2C1 [clopidogrel]
- elevation of oral exposure of repaglinide upon coadministration [2]: 5 fold

Molecule: O=c1c(O)c(-c2ccc(O)c(O)c2)oc2cc(O)ccc12 [fisetin]
- IC50 (CYP2C8 [3]): 10.8 µM

Molecule: Cc1ccc(C)c(OCCCC(C)(C)C(=O)O)c1 [gemfibrozil]
- Ki (CYP2C8 [4]): 10.2 µM
- Cmax ([5]; 600 mg twice daily, healthy human volunteers): 16850 ng/mL
- increase in oral exposure of cerivastatin ([2]; human subjects): about 5.6 fold
- enhancement of AUC of repaglinide ([2]; humans): 8.3 fold
- enhancement of Cmax of repaglinide ([2]; humans): 2.4 fold
- enhancement of bioavailability of sitagliptin ([2]; humans): 54%

Molecule: O=c1c(O)c(-c2ccc(O)cc2O)oc2cc(O)cc(O)c12 [morin]
- IC50 (CYP2C8 [3]): 17.3 µM

- plasma exposure of N-desethylamodiaquine ([1]; rats, myricetin coadministration vs amodiaquine without myricetin): Substantial elevation
- Ki (CYP2C8 [7]): 1700 ± 110 nM
- IC50 (CYP2C8 [8]): 2400 ± 50 nM
- α-value (CYP2C8 [8]; HLM, mixed inhibition model): 3.55
Molecule: O=c1c(O)c(-c2cc(O)c(O)c(O)c2)oc2cc(O)cc(O)c12 [myricetin, Myricetin]
- percent of amodiaquine remaining [6]: increased with the increasing concentration of myricetin
- IC50 (CYP3A4; read-out: IC50 for CYP3A4): 10.7 µM and 20.3 µM
- IC50 (CYP2D6): 30.2 µM
- Cmax in plasma ([5]; humans, oral cranberry juice containing myricetin): 21.6 ± 5.7 µg/mL

Molecule: O=c1c(O)c(-c2ccc(O)c(O)c2)oc2cc(O)cc(O)c12 [quercetin]
- Cmax ([5]; humans, 100 mg dose): 2310 ng/mL
- enhancement of oral exposure of repaglinide [9]: 1.8 fold

Molecule: Oc1ccc(/C=C/c2cc(O)cc(O)c2)cc1 [trans-resveratrol]
- Cmax ([5]; humans, 2000 mg dose): 1274 ng/mL
- decrease of clearance of carbamazepine ([2]; clinical study): 33%
- enhancement of AUC of carbamazepine ([2]; clinical study): 1.4 fold

Molecule: COc1cc(Cc2cnc(N)nc2N)cc(OC)c1OC [trimethoprim]
- elevation of oral exposure of repaglinide upon coadministration [2]: 2 fold

B1: CYP2C8 (Homo sapiens) (protein)
chain: MEPFVVLVLCLSFMLLFSLWRQSCRRRKLPPGPTPLPIIGNMLQIDVKDICKSFTNFSKVYGPVFTVYFGMNPIVVFHGYEAVKEALIDNGEEFSGRGNSPISQRITKGLGIISSNGKRWKEIRRFSLTTLRNFGMGKRSIEDRVQEEAHCLVEELRKTKASPCDPTFILGCAPCNVICSVVFQKRFDYKDQNFLTLMKRFNENFRILNSPWIQVCNNFPLLIDCFPGTHNKVLKNVALTRSYIREKVKEHQASLDVNNPRDFIDCFLIKMEQEKDNQKSEFNIENLVGTVADLFVAGTETTSTTLRYGLLLLLKHPEVTAKVQEEIDHVIGRHRSPCMQDRSHMPYTDAVVHEIQRYSDLVPTGVPHAVTTDTKFRNYLIPKGTTIMALLTSVLHDDKEFPNPNIFDPGHFLDKNGNFKKSDYFMPFSAGKRICAGEGLARMELFLFLTTILQNFNLKSVDDLKNLNTTAVTKGIVSLPPSYQICFIPV
- Km [10]: 4.7 ± 0.12 µM
- Vmax [10]: 3996 ± 46 pmol/min/mg protein
